Assays:
AP activity (Wieslab) = test: First in human (FIH) studies: suppression of AP activity (Wieslab); assay type: in vivo
Protocol: In the FIH studies, there was rapid suppression of the AP activity (Wieslab) with approximately 80% or greater inhibition achieved at two hours post-dose for participants receiving single dose of 200 mg iptacopan. The suppression of the AP (80% or greater inhibition) was sustained over 14 days of dosing at 200 mg b.i.d. The exposure-response model developed with data from the FIH study with iptacopan in healthy volunteers predicts that a dose of about 200 mg b.i.d. would be needed to achieve >90% inhibition of the AP (Wieslab assay) in most participants. Preclinical studies supported acceptable safety margins for human exposure following 200 mg b.i.d. dosing.
Given the observed PK/PD profile in a first in human study in healthy volunteers, a 200 mg b.i.d dose of iptacopan is selected for this study.

[1] = tested on: complement alternative pathway; conditions: multiple in vitro and in vivo non-clinical mechanistic studies; cited from earlier work

Question: With `CCO[C@H]1CCN(Cc2c(OC)cc(C)c3[nH]ccc23)[C@H](c2ccc(C(=O)O)cc2)C1` [iptacopan, 4-((2S,4S)-(4-ethoxy-1-((5-methoxy-7-methyl-1H-indol-4-yl)methyl)piperidin-2-yl))benzoic acid] as the compound, how does the “suppression of the AP (inhibition), sustained” value (AP activity (Wieslab); over 14 days of dosing at 200 mg b.i.d.) read?
Answer: ≥ 80%

Question: What about the “inhibition of AP activity (Wieslab)” value (AP activity (Wieslab); two hours post-dose, single dose of 200 mg, FIH participants) of the same compound?
Answer: ≥ 80%

Question: What about the “inhibition of the complement alternative pathway” value [1] of the same compound?
Answer: demonstrated inhibition of the complement alternative pathway

Reference: patent US20240277689A1, “METHOD OF TREATING AN AUTOIMMUNE HEMATOLOGICAL DISORDER” (Novartis AG, priority 2021, published 2024)
